This is an account of results in ChEMBL document CHEMBL4196084 (Eur J Med Chem, 2018).

Calls of active or inactive are those of the source. The calls are words filed in the database; no cut-off is given here.

The target in data set [1] is Cholinesterase (Homo sapiens, UniProt P06276).
Description: Inhibition of human plasmatic BuChE using butyrylthiocholine iodide as substrate preincubated for 5 mins followed by substrate addition measured at 2 mins time interval by Ellman's method
For data set [2], the target named is T1, Acetylcholinesterase (Homo sapiens, UniProt P22303).
Description: Inhibition of human erythrocyte AChE using acetylthiocholine iodide as substrate preincubated for 5 mins followed by substrate addition measured at 2 mins time interval by Ellman's method
Data set [3] deals with T2, Muscarinic acetylcholine receptor M1 (Homo sapiens, UniProt P11229).
T2 sequence (P11229 whole entry): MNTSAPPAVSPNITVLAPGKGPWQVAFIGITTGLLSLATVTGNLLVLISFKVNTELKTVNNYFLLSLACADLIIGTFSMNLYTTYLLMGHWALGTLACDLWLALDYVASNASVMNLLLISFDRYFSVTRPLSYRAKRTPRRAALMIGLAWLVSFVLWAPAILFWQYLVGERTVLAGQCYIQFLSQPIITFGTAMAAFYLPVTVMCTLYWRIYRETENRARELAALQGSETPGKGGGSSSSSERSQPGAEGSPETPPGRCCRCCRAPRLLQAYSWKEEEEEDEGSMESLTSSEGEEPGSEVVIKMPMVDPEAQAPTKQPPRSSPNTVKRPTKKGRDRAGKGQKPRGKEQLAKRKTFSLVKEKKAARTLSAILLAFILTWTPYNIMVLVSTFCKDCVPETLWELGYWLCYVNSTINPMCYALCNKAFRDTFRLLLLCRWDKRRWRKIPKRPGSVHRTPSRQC
Format: functional, cell-based, CHO.

Data set [4] can be described thus: in vitro. The note with it: PAMPA.
Data set [5] can be described thus: in vitro. The note with it: PAMPA. This is another data set of the same source. A general note: The PAMPA barrier holds no transporters, so it reflects passive diffusion.
Data set [6] in a line: Solubility of the compound in PBS buffer. Format: physicochemical.
In data set [7] the test system is HepG2. Nature of the data set: cells. Format: ADME, cell-based. The note with it: Homo sapiens, HepG2, 24 h.
Description: Cytotoxicity against human HepG2 cells assessed as reduction in cell viability after 24 hrs by MTT assay
For data set [8], the target named is T3, Muscarinic acetylcholine receptor M1 (Homo sapiens) (UniProt P11229).
T3 sequence (whole entry): T2 sequence (P11229 whole entry)
Nature of the data set: Positive allosteric modulation of human M1 mAChR expressed in CHO cells assessed as increase in oxotremorine M-stimulated calcium influx preincubated for 10 mins followed by oxotremorine M addition by Fluo-4 NW dye based fluorescence assay. Format: functional, cell-based.

The target in data set [9] is T1, Acetylcholinesterase. Nature of the data set: Mixed type inhibition of human erythrocyte AChE assessed as enzyme-inhibitor complex using varying levels of acetylthiocholine iodide as substrate preincubated for 5 mins followed by substrate addition by Lineweaver-Burk plot analysis.
Data set [10] deals with T1, Acetylcholinesterase. Kind of data set: Mixed type inhibition of human erythrocyte AChE assessed as enzyme-substrate-inhibitor complex using varying levels of acetylthiocholine iodide as substrate preincubated for 5 mins followed by substrate addition by Lineweaver-Burk plot analysis.

Usually IC50 stands for the concentration that inhibits the measured activity by half. By Papp is commonly meant the rate of passage across a membrane or cell layer, normalised by area and donor concentration. In general, Ki refers to the equilibrium dissociation constant of an inhibitor or competing ligand from its target.

Sequence of Cholinesterase (P06276 whole entry): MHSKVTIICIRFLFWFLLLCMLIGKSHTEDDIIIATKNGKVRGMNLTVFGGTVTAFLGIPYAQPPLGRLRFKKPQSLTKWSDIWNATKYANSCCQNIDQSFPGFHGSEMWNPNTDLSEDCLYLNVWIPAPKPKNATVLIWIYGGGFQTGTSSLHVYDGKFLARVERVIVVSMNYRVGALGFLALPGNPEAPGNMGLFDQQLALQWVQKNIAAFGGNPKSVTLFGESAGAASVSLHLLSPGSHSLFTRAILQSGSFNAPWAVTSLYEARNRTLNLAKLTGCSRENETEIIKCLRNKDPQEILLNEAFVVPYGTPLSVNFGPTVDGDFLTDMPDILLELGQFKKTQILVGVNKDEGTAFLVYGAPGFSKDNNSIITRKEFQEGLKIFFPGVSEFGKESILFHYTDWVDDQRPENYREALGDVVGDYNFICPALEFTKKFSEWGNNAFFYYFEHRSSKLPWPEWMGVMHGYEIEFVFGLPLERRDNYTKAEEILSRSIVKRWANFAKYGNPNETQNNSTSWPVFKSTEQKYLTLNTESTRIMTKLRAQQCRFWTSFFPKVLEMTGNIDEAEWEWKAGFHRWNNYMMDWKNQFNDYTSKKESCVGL
T1 sequence (P22303 whole entry): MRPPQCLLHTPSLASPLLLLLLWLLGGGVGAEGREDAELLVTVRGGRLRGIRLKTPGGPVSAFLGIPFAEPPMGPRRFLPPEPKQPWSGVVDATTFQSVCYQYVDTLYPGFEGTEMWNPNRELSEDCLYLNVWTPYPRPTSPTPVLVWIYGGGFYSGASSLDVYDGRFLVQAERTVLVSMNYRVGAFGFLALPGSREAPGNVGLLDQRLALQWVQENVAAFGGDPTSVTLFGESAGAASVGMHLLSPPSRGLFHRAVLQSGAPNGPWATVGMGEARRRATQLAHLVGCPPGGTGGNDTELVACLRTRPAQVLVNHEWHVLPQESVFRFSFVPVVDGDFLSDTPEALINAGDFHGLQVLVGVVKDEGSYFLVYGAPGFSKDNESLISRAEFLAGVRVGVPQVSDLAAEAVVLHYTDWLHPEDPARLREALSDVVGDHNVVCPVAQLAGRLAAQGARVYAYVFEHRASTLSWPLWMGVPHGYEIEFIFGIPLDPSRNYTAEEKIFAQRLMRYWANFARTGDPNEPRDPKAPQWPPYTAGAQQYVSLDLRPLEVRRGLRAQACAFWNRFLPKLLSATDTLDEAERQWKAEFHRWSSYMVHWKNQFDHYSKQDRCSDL

As for `COc1ccc(Cn2cc(C(=O)NCCCCNc3c4c(nc5cc(Cl)ccc35)CCCC4)c(=O)c3ccccc32)cc1`, the figures for the IC50 in data set [1], in data set [2] and in data set [3] were 3.12 µM, 0.0896 µM and 4.11 µM, respectively.
As to `CN(C)CCCN1c2ccccc2Sc2ccccc21` [PROMAZINE], the apparent permeability coefficient (Papp) at 100 µM in data set [4] was found to be 6.6 ×10⁻⁶ cm/s; in data set [5], 9.4 ×10⁻⁶ cm/s.
As to `COc1ccc(Cn2cc(C(=O)NCCCCCCNc3c4c(nc5ccc(OC)cc35)CCCC4)c(=O)c3ccccc32)cc1`, the IC50 in data set [1] was 16.6 µM; in [2] it was 10 µM; in data set [3], 8.61 µM.
For `COc1ccc(Cn2cc(C(=O)NCCCCCCNc3c4c(nc5ccccc35)CCCC4)c(=O)c3ccccc32)cc1`, the apparent permeability coefficient (Papp) at 100 µM in data set [4] was found to be 2.28 ×10⁻⁶ cm/s. The IC50 in data set [1] was 0.28 µM; in [2] it was 0.194 µM; in data set [3], 1.49 µM; in data set [7], 2.72 µM. Moreover, the solubility result in [6] is recorded as “Insoluble”.
With `COc1ccc(Cn2cc(C(=O)O)c(=O)c3ccccc32)cc1`, the IC50 in data set [1] and in data set [2] was above 1000 µM each time. In addition, the outcome in [8] was Active.
`COc1ccc(Cn2cc(C(=O)NCCCCCCCCNc3c4c(nc5ccccc35)CCCC4)c(=O)c3ccccc32)cc1`: the 50% inhibitory concentration (IC50) worked out at 1.28 µM in data set [1], 0.768 µM in data set [2] and 2.05 µM in data set [3].
On to `COc1ccc2nc3c(c(N)c2c1)CCCC3`, for which the half-maximal inhibitory concentration (IC50) was found to be 3.71 µM in data set [3] and 44.4 µM in data set [7].
`COc1ccc(Cn2cc(C(=O)NCCCNc3c4c(nc5ccccc35)CCCC4)c(=O)c3ccccc32)cc1` came in with a Papp at 100 µM in data set [4] of 2.6 ×10⁻⁶ cm/s. Further, the IC50 came to 0.674 µM in [1], 0.129 µM in data set [2], 0.455 µM in data set [3] and 2.17 µM in [7]. Besides, the solubility result in [6] is “Insoluble”.
`COc1ccc(Cn2cc(C(=O)NCCCCCCCNc3c4c(nc5ccc(OC)cc35)CCCC4)c(=O)c3ccccc32)cc1`: the apparent permeability coefficient (Papp) at 100 µM in data set [4] turned out to be 9.25 ×10⁻⁶ cm/s. In addition, the half-maximal inhibitory concentration (IC50) in [1] was determined as 49.3 µM; in data set [2], 1.53 µM; in data set [3], 11.4 µM; in data set [7], 0.6 µM. Moreover, the solubility result in data set [6] is recorded as “Insoluble”.
Regarding `COc1ccc(Cn2cc(C(=O)NCCCCCCCCNc3c4c(nc5cc(Cl)ccc35)CCCC4)c(=O)c3ccccc32)cc1`, the values for the IC50 in data set [1], in [2] and in [3] were 37.2 µM, 0.119 µM and 9.45 µM, respectively.
Consider `COc1ccc(Cn2cc(C(=O)NCCCCNc3c4c(nc5ccccc35)CCCC4)c(=O)c3ccccc32)cc1`, for which the IC50 turned out to be 1.32 µM in data set [1], 0.491 µM in [2] and 1.59 µM in data set [3].
In the case of `COc1ccc(Cn2cc(C(=O)NCCNc3c4c(nc5ccc(OC)cc35)CCCC4)c(=O)c3ccccc32)cc1`, in data set [4], the Papp at 100 µM came to 1.65 ×10⁻⁶ cm/s. Besides, the IC50 in data set [1] turned out to be 0.408 µM; in data set [2], 2.64 µM; in data set [3] it was 3.71 µM; in [7], 1.63 µM. For the same compound, in [6], the solubility result is “Insoluble”.
As for `COc1ccc(Cn2cc(C(=O)NCCCCCNc3c4c(nc5cc(Cl)ccc35)CCCC4)c(=O)c3ccccc32)cc1`, the IC50 in data set [1] stood at 7.74 µM; in data set [2], 0.18 µM; in data set [3], 3.27 µM.
Turning to `COc1ccc(Cn2cc(C(=O)NCCNc3c4c(nc5ccccc35)CCCC4)c(=O)c3ccccc32)cc1`, in [4], the Papp at 100 µM amounted to 1.8 ×10⁻⁶ cm/s. Also, the 50% inhibitory concentration (IC50) in [1] is 0.0589 µM; in [2], 0.187 µM; in data set [3], 0.658 µM; in [7] it was 1.44 µM. Moreover, the solubility result in data set [6] was “Insoluble”.
For `COc1ccc(Cn2cc(C(=O)NCCCCCNc3c4c(nc5ccccc35)CCCC4)c(=O)c3ccccc32)cc1`, the IC50 in data set [1] worked out at 0.823 µM; in data set [2], 0.293 µM; in data set [3] it was 1.48 µM.
Turning to `COc1ccc(Cn2cc(C(=O)NCCCNc3c4c(nc5ccc(OC)cc35)CCCC4)c(=O)c3ccccc32)cc1`, in data set [4], the Papp at 100 µM is 4.85 ×10⁻⁶ cm/s. Further, the IC50 in [1] was determined as 1.03 µM; in [2], 2.24 µM; in [3], 2.48 µM; in [7] it was 2.42 µM. Besides, in [6], the solubility result is “Insoluble”.
Regarding `COc1ccc(Cn2cc(C(=O)NCCCCCNc3c4c(nc5ccc(OC)cc35)CCCC4)c(=O)c3ccccc32)cc1`, the concentration for half-maximal inhibition (IC50) turned out to be 6.16 µM in data set [1], 8.02 µM in data set [2] and 1.37 µM in [3].
For the compound `COc1ccc(Cn2cc(C(=O)NCCCCCCCNc3c4c(nc5cc(Cl)ccc35)CCCC4)c(=O)c3ccccc32)cc1`, the Papp at 100 µM in data set [4] is 2.35 ×10⁻⁶ cm/s. Moreover, the IC50 is 3.34 µM in data set [1], 0.0517 µM in [2], 5.35 µM in data set [3] and above 40 µM in [7]. Besides, the solubility result in [6] was “Insoluble”.
Take `CC(=O)[C@H]1CC[C@H]2[C@@H]3CCC4=CC(=O)CC[C@]4(C)[C@H]3CC[C@]12C` [PROGESTERONE]: the results for the apparent permeability (Papp) at 100 µM in [4] and in data set [5] were 8.6 ×10⁻⁶ cm/s and 10.8 ×10⁻⁶ cm/s, respectively.
In the case of `COc1ccc(Cn2cc(C(=O)NCCCCNc3c4c(nc5ccc(OC)cc35)CCCC4)c(=O)c3ccccc32)cc1`, the half-maximal inhibitory concentration (IC50) was 1.08 µM in data set [1], 9.5 µM in data set [2] and 1.07 µM in [3].
On to `C[C@]12CC[C@H]3[C@@H](CCC4=CC(=O)CC[C@@]43C)[C@@H]1CC[C@@H]2O` [TESTOSTERONE], for which the apparent permeability coefficient (Papp) at 100 µM in data set [4] worked out at 8.5 ×10⁻⁶ cm/s; in [5], 11.6 ×10⁻⁶ cm/s.
For the compound `COc1ccc(Cn2cc(C(=O)NCCCCCCCCNc3c4c(nc5ccc(OC)cc35)CCCC4)c(=O)c3ccccc32)cc1`, the half-inhibitory concentration (IC50) in data set [1] is 12.4 µM; in data set [2], 74.3 µM; in [3], 7.86 µM.
With `Nc1c2c(nc3cc(Cl)ccc13)CCCC2`, the IC50 in [3] is 6.09 µM; in data set [7], 43.2 µM.
For `COc1ccc(Cn2cc(C(=O)NCCCCCCCNc3c4c(nc5ccccc35)CCCC4)c(=O)c3ccccc32)cc1`, the half-inhibitory concentration (IC50) is 1.19 µM in data set [1], 0.194 µM in [2] and 2.14 µM in data set [3].
For the compound `COc1ccc(Cn2cc(C(=O)NCCNc3c4c(nc5cc(Cl)ccc35)CCCC4)c(=O)c3ccccc32)cc1`, the apparent permeability coefficient (Papp) at 100 µM in [4] was 2.37 ×10⁻⁶ cm/s. In addition, the concentration for half-maximal inhibition (IC50) amounted to 0.0833 µM in data set [1], 0.0745 µM in data set [2], 4.23 µM in [3] and 3.48 µM in data set [7]. Moreover, the solubility result in [6] is “Insoluble”.
Consider `COc1ccc(Cn2cc(C(=O)NCCCNc3c4c(nc5cc(Cl)ccc35)CCCC4)c(=O)c3ccccc32)cc1`, for which the Papp at 100 µM in [4] was 3.08 ×10⁻⁶ cm/s. Moreover, the IC50 in data set [1] was determined as 3.72 µM; in data set [2], 0.0419 µM; in [3] it was 4.01 µM; in [7], 4.99 µM. Moreover, the Ki in data set [9] is 0.00328 µM; in data set [10], 0.00157 µM. Further, in [6], the solubility result is “Insoluble”.
Consider `COc1ccc(Cn2cc(C(=O)NCCCCCCNc3c4c(nc5cc(Cl)ccc35)CCCC4)c(=O)c3ccccc32)cc1`, for which the half-inhibitory concentration (IC50) worked out at 13.4 µM in data set [1], 0.0941 µM in data set [2] and 2.78 µM in [3].
